{
  "source": "patent US4757064A",
  "about": "“Pharmacologically active bicyclic lactams” (Bayer Aktiengesellschaft, priority 1986, dated 1988)",
  "key": {"[1]": {"conditions": "animal tests; isolated from Clausena Pentaphylla (Roxb.); cited from earlier work"}, "[2]": {"test_system": "retrograde amnesia (rat) under hypoxic conditions", "experiment": "Retrograde amnesia under hypoxic conditions (passive avoidance, dark compartment, foot shock)", "assay_type": "in vivo, Male rats", "conditions": "100 mg/kg p.o.; 3.8% oxygen and 96.2% nitrogen; retest after 24 hours; groups of 15", "description": "Influence of the compound (I, R=H) on retrograde amnesia (rat) under hypoxic conditions.\nThe apparatus (39 cm long, 21 cm high, and 21 cm wide) consists of two compartments, one made of translucent plastic (29 cm long) and the other one painted black (10 cm long). It has a bottom of spaced metal grids which are connected to a stimulating device delivering 1.6 mA for 20 s.\nBoth compartments are connected via a door which can be closed.\nMale rats (100-120 g body weight) will be placed individually in the large compartment and allowed to explore both compartments for 3 min.\nThereafter, the animals are placed in the small (dark) compartment, the connecting door is closed and the foot shock is delivered. After that the animals are put in an air-tight cage which is perfused by a gas mixture containing 3.8% oxygen and 96.2% nitrogen.\n24 hours later the rats are placed again in the bright compartment. The observation time is 3 min.\nOne experiment is performed in three groups of 15 animals each:\nGroup A: control group, not exposed to hypoxia\nGroup B: control group, receiving hypoxia after first training\nGroup C: treated animals, receiving hypoxia after first training\nEvaluation: the times the animals need to enter the dark compartment are measured in seconds. […]\nThe time difference between the control group B and the treated group C is calculated in percent (C-B=X%). […]"}, "CCl4 intoxicated mice": {"test_system": "CCl4 intoxicated mice", "experiment": "Hepatoprotective action in CCl4 intoxicated mice (SGPT)", "assay_type": "in vivo, Male Kunming strain mice", "description": "Male Kunming strain mice weighing 18-22 grams were used throughout the experiments. The compounds to be tested were suspended in 5% Tween 80 and given orally by gavage. The vehicle of 5% Tween 80 solution was administered to control mice via the same route. In in vitro experiments, the compounds were dissolved in dimethylformamide and added directly into the incubation mixture.\nMice were divided into several groups. The control group was administered the vehicle. The other groups were given two doses (250 mg/kg) of compound (I, R=H), at an interval of 8 h, respectively. 10 ml/kg of 0.1% CCl4 in vegetable oil was injected ip 24 h after the second administration of the compound. The mice were fasted for 16 h and sacrificed by decapitation. SGPT and liver lipids were determined. A piece of liver was processed into sections for pathological observation."}},
  "data": [
    {"smiles": "C=CC(C)(C)c1cc2cc3c(cc2oc1=O)OC1(C)CCC(C(C)(C)O)OC1C3", "note": "(stereo not shown) [Clausmarins A]", "values": [
      {"measurement": "spasmolytic activity (in words)", "setting": "[1]", "value": "showed spasmolytic activity"}
    ]},
    {"smiles": "CN1C=Cc2ccccc2C(c2ccccc2)C(O)C1=O", "note": "(stereo not shown) [Compound (I, R = H)]", "values": [
      {"measurement": "X, antiamnestic effect (C-B, with A-B=100%)", "setting": "[2]", "value": 34, "unit": "%"},
      {"measurement": "SGPT, X ± SE", "setting": "CCl4 intoxicated mice; 250 mg/kg × 2, 8 h interval, oral by gavage, 10 ml/kg of 0.1% CCl4 ip 24 h after second dose, 9 per group, control 2270 ± 284, P <0.01", "value": "617 ± 166", "unit": "unit %"},
      {"measurement": "effect on elevated SGPT (in words)", "setting": "CCl4 intoxicated mice; mice intoxicated with CCl4", "value": "significantly decreased the elevated SGPT"}
    ]}
  ]
}
